This is an account of results in PubChem BioAssay AID330 (DTP/NCI, 2004).

The assay relates to P388 leukemia ip, CD2F1 mice, survival T/C. In words: NCI In Vivo Anticancer Drug Screen. Data for tumor model P388 Leukemia (intraperitoneal) in CD2F1 (CDF1) mice. The settings on record: endpoint: median survival time, higher = longer survival. Summed up: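 Mice carrying the transplanted tumor received test compound or vehicle. Survival was recorded in each group, and the value is the treated-group measurement divided by that of the vehicle-treated control group.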

Setting [1] is: dose: 60.0 mg/kg/injection, schedule: Q01DX005 (ip), vehicle: saline with Tween-80.
Where [2] appears, read: dose: 120.0 mg/kg/injection, schedule: Q01DX005 (ip), vehicle: saline with Tween-80.
Where [3] appears, read: dose: 240.0 mg/kg/injection, schedule: Q01DX005 (ip), vehicle: saline with Tween-80.
Where [4] appears, read: dose: 100.0 mg/kg/injection, schedule: Q04DX003 (ip), vehicle: saline with Tween-80.
[5] abbreviates: dose: 200.0 mg/kg/injection, schedule: Q04DX003 (ip), vehicle: saline with Tween-80.
Setting [6] is: dose: 50.0 mg/kg/injection, schedule: Q01DX005 (ip), vehicle: Klucel (hydroxypropylcellulose) (HPC).
[7] abbreviates: dose: 100.0 mg/kg/injection, schedule: Q01DX005 (ip), vehicle: Klucel (hydroxypropylcellulose) (HPC).
Setting [8] is: dose: 200.0 mg/kg/injection, schedule: Q01DX005 (ip), vehicle: Klucel (hydroxypropylcellulose) (HPC).
Setting [9] is: dose: 50.0 mg/kg/injection, schedule: Q01DX009 (ip), vehicle: saline with Tween-80.
[10] abbreviates: dose: 50.0 mg/kg/injection, schedule: Q01DX005 (ip), vehicle: saline with Tween-80.
Where [11] appears, read: dose: 100.0 mg/kg/injection, schedule: Q01DX005 (ip), vehicle: saline with Tween-80.
Setting [12] is: dose: 200.0 mg/kg/injection, schedule: Q01DX005 (ip), vehicle: saline with Tween-80.
Where [13] appears, read: dose: 100.0 mg/kg/injection, schedule: Q01DX005 (ip), vehicle: saline.

Each structure is given as a SMILES string. Values joined by “and” are separate entries in the source; they are usually repeats but may differ in a detail not shown here. Identical values can stand only once. Inconclusive results and toxic doses are left out.

In the case of `CCOC(=O)C(=CNc1cc(C)c2[nH]c3ccc(Br)cc3c2c1C)C(=O)OCC`, the T/C was 93 % of control under setting [1]; 93 % of control under setting [2]; 86 % of control and 93 % of control under setting [3].
Consider `CCCC(=O)O`, for which the T/C by setting is: (dose: 50.0 mg/kg/injection, schedule: Q01DX009 (ip), vehicle: saline) 93 % of control; (dose: 100.0 mg/kg/injection, schedule: Q01DX009 (ip), vehicle: saline) 91 % of control; (dose: 200.0 mg/kg/injection, schedule: Q01DX009 (ip), vehicle: saline) 90 % of control.
Consider `O=C1OC(C(F)(F)F)=NC1Cc1ccccc1` (stereo unspecified), for which the T/C under setting [4] was 107 % of control; the T/C under setting [5] was 98 % of control; the T/C (dose: 400.0 mg/kg/injection, schedule: Q04DX003 (ip), vehicle: saline with Tween-80) is 101 % of control.
As for `CC1(C)CC(NCCN)=CC(=S)N1`, the T/C runs as follows: under setting [6], 98 % of control; under setting [7], 98 % of control; under setting [8], 104 % of control.
`COc1cccc(C(=O)c2ccc(OC)cc2C(=O)O)c1`: the T/C is, setting by setting: under setting [6], 95 % of control; under setting [7], 101 % of control; under setting [8], 97 % of control.
With `CCCCC(CC)CO.[Ti]` (stereo unspecified), the T/C reads like this: under setting [9], 90 % of control; (dose: 50.0 mg/kg/injection, schedule: Q04DX003 (ip), vehicle: saline with Tween-80) 100 % of control; (dose: 100.0 mg/kg/injection, schedule: Q01DX009 (ip), vehicle: saline with Tween-80) 109 % of control; under setting [4], 100 % of control; (dose: 200.0 mg/kg/injection, schedule: Q01DX009 (ip), vehicle: saline with Tween-80) 100 % of control; under setting [5], 100 % of control.
Take `O=C(NC(Cc1ccccc1)C(=O)NC(Cc1c[nH]c2ccccc12)C(=O)O)OCc1ccccc1` (stereo unspecified): the T/C was 90 % of control under setting [10], 98 % of control under setting [11] and 91 % of control under setting [12].
As to `CC(=O)C(=Cc1ccc(OC2OC(CO)C(O)C(O)C2O)cc1)C(C)=O` (stereo unspecified), the T/C (dose: 60.0 mg/kg/injection, schedule: Q01DX005 (ip), vehicle: saline) was 100 % of control; the T/C (dose: 120.0 mg/kg/injection, schedule: Q01DX005 (ip), vehicle: saline) is 100 % of control; the T/C (dose: 240.0 mg/kg/injection, schedule: Q01DX005 (ip), vehicle: saline) was 98 % of control.
With `C[N+]1(C)Cc2ccccc2C1`, the T/C (dose: 12.5 mg/kg/injection, schedule: Q01DX009 (ip), vehicle: saline) is 105 % of control and the T/C (dose: 25.0 mg/kg/injection, schedule: Q01DX009 (ip), vehicle: saline) was 108 % of control.
In the case of `Nc1ccc2c(SCCSc3c4ccccc4nc4cc(N)ccc34)c3ccccc3nc2c1`, the T/C is 97 % of control under setting [1] and 100 % of control under setting [2].
`NC(=O)NC(C/[N+]([O-])=N/O)C(=O)O` (stereo unspecified): the T/C is 100 % of control (dose: 12.5 mg/kg/injection, schedule: Q01DX009 (ip), vehicle: water); 96 % of control (dose: 25.0 mg/kg/injection, schedule: Q01DX009 (ip), vehicle: water); 98 % of control (dose: 50.0 mg/kg/injection, schedule: Q01DX009 (ip), vehicle: water); 98 % of control (dose: 100.0 mg/kg/injection, schedule: Q01DX009 (ip), vehicle: water).
Take `CC(C)(C)OC(=O)NC(CCCCN)C(=O)O` (stereo unspecified): the T/C was 103 % of control (dose: 50.0 mg/kg/injection, schedule: Q01DX005 (ip), vehicle: saline); 100 % of control under setting [13]; 100 % of control (dose: 200.0 mg/kg/injection, schedule: Q01DX005 (ip), vehicle: saline).
In the case of `CCCn1c2nc(=O)n(C)c(=O)c-2cc2ccccc21`, the T/C is 105 % of control (dose: 10.0 mg/kg/injection, schedule: Q01DX009 (ip), vehicle: saline with Tween-80); 116 % of control (dose: 20.0 mg/kg/injection, schedule: Q01DX009 (ip), vehicle: saline with Tween-80); 111 % of control (dose: 40.0 mg/kg/injection, schedule: Q01DX009 (ip), vehicle: saline with Tween-80).
`O=C(O)c1cc(-c2ccccc2)[nH]c1-c1ccccc1`: the T/C (dose: 12.5 mg/kg/injection, schedule: Q01DX009 (ip), vehicle: saline with Tween-80) is 103 % of control; the T/C (dose: 25.0 mg/kg/injection, schedule: Q01DX009 (ip), vehicle: saline with Tween-80) is 106 % of control; the T/C under setting [9] was 90 % of control.
In the case of `CC=O`, the T/C was 100 % of control and 103 % of control and 109 % of control (dose: 0.5 % in 0.5 ml injection vol, schedule: Q01DX009 (ip), vehicle: water); 104 % of control and 112 % of control (dose: 1.0 % in 0.5 ml injection vol, schedule: Q01DX009 (ip), vehicle: water); 117 % of control (dose: 2.0 % in 0.5 ml injection vol, schedule: Q01DX009 (ip), vehicle: water).
On to `CCOC(=O)C1=CC(C(=O)OCC)=C2C=CC=C3C=CC=C1N32`, for which the T/C is, setting by setting: under setting [1], 93 % of control; under setting [2], 90 % of control; under setting [3], 88 % of control.
As to `CC1=NN(C(=O)NS(=O)(=O)c2ccc(CCNC(=O)c3nccnc3N)cc2)CC1`, the T/C under setting [10] was 96 % of control, the T/C under setting [11] was 105 % of control and the T/C under setting [12] was 105 % of control.
Take `COc1ccc2c(c1OC)C(=O)N1CCc3cc4c(cc3C1C2C(=O)O)OCO4` (stereo unspecified): the T/C (dose: 50.0 mg/kg/injection, schedule: Q04DX003 (ip), vehicle: distilled water + Tween-80) is 100 % of control; the T/C (dose: 100.0 mg/kg/injection, schedule: Q04DX003 (ip), vehicle: distilled water + Tween-80) is 109 % of control; the T/C (dose: 200.0 mg/kg/injection, schedule: Q04DX003 (ip), vehicle: distilled water + Tween-80) is 100 % of control; the T/C (dose: 400.0 mg/kg/injection, schedule: Q04DX003 (ip), vehicle: distilled water + Tween-80) was 104 % of control.
Take `CC1=COC2CCCCC2O1` (stereo unspecified) (tested in a mixture with another compound): the T/C reads like this: (dose: 25.0 mg/kg/injection, schedule: Q01DX009 (ip), vehicle: acetone) 111 % of control; (dose: 50.0 mg/kg/injection, schedule: Q01DX009 (ip), vehicle: acetone) 105 % of control.
As to `CC(C)SC(=S)Nc1cccc(F)c1`, the T/C is 107 % of control (dose: 50.0 mg/kg/injection, schedule: Q01DX009 (ip), vehicle: suspension in saline); 109 % of control (dose: 100.0 mg/kg/injection, schedule: Q01DX009 (ip), vehicle: suspension in saline); 107 % of control (dose: 200.0 mg/kg/injection, schedule: Q01DX009 (ip), vehicle: suspension in saline).
For the molecule `N#Cc1c(-c2ccc(Cl)cc2)c(-c2ccc(Cl)cc2)nn(CCOC(=O)CCC(=O)O)c1=O`, the T/C is 100 % of control (dose: 3.13 mg/kg/injection, schedule: Q01DX005 (ip), vehicle: distilled water + Tween-80); 100 % of control (dose: 6.25 mg/kg/injection, schedule: Q01DX005 (ip), vehicle: distilled water + Tween-80); 105 % of control (dose: 12.5 mg/kg/injection, schedule: Q01DX005 (ip), vehicle: distilled water + Tween-80); 104 % of control (dose: 12.5 mg/kg/injection, schedule: Q01DX005 (ip), vehicle: saline); 103 % of control (dose: 12.5 mg/kg/injection, schedule: Q01DX005 (ip), vehicle: sodium bicarbonate); 106 % of control (dose: 12.5 mg/kg/injection, schedule: Q04DX002 (ip), vehicle: distilled water + Tween-80). The T/C runs as follows: (dose: 25.0 mg/kg/injection, schedule: Q01DX005 (ip), vehicle: distilled water + Tween-80) 114 % of control and 117 % of control; (dose: 25.0 mg/kg/injection, schedule: Q01DX005 (ip), vehicle: saline) 112 % of control; (dose: 25.0 mg/kg/injection, schedule: Q01DX005 (ip), vehicle: sodium bicarbonate) 112 % of control; (dose: 25.0 mg/kg/injection, schedule: Q04DX002 (ip), vehicle: distilled water + Tween-80) 105 % of control and 113 % of control; (dose: 50.0 mg/kg/injection, schedule: Q01DX005 (ip), vehicle: distilled water + Tween-80) 172 % of control and 184 % of control; under setting [13], 180 % of control. The T/C is, setting by setting: (dose: 100.0 mg/kg/injection, schedule: Q01DX005 (ip), vehicle: sodium bicarbonate) 202 % of control; (dose: 100.0 mg/kg/injection, schedule: Q04DX002 (ip), vehicle: distilled water + Tween-80) 115 % of control and 92 % of control.
